Experimental data: PubChem BioAssay (NCI)
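In this assay, cells in 96-well plates receive the compound at five concentrations for 48 hours. Endpoints are linearly interpolated between the surrounding concentrations. GI50 is the concentration that inhibits growth by half. TGI: total growth inhibition.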

Tests used:
Test in all cases: NCI tumour cell line growth inhibition, 48 h
[1] = tested on: SF-268 CNS
[2] = tested on: BT-549 breast
[3] = tested on: PC-3 prostate
[4] = tested on: MDA-MB-231 breast
[5] = tested on: DU-145 prostate
[6] = tested on: NCI-H460 lung
[7] = tested on: SNB-75 CNS
[8] = tested on: RPMI-8226 leukemia
[9] = tested on: NCI/ADR-RES ovarian
[10] = tested on: IGROV1 ovarian
[11] = tested on: KM12 colon
[12] = tested on: OVCAR-3 ovarian
[13] = tested on: SK-OV-3 ovarian
[14] = tested on: SN12C renal
[15] = tested on: HT29 colon
[16] = tested on: UO-31 renal
[17] = tested on: MALME-3M melanoma
[18] = tested on: SK-MEL-5 melanoma
[19] = tested on: UACC-62 melanoma
[20] = tested on: HS 578T breast
[21] = tested on: HOP-92 NSCLC
[22] = tested on: SNB-19 CNS
[23] = tested on: RXF 393 renal
[24] = tested on: COLO 205 colon
[25] = tested on: K-562 leukemia
[26] = tested on: SW-620 colon
[27] = tested on: 786-0 renal
[28] = tested on: NCI-H522 lung
[29] = tested on: SK-MEL-28 melanoma
[30] = tested on: CCRF-CEM leukemia
[31] = tested on: SF-295 CNS
[32] = tested on: HCT-116 colon
[33] = tested on: EKVX NSCLC
[34] = tested on: HL-60(TB) leukemia
[35] = tested on: CAKI-1 renal
[36] = tested on: MDA-MB-435
[37] = tested on: NCI-H226 lung
[38] = tested on: HCT-15 colon
[39] = tested on: NCI-H23 lung
[40] = tested on: A549 NSCLC
[41] = tested on: UACC-257 melanoma
[42] = tested on: OVCAR-4 ovarian
[43] = tested on: OVCAR-5 ovarian
[44] = tested on: T-47D breast
[45] = tested on: SR leukemia
[46] = tested on: HCC-2998 colon
[47] = tested on: U251 CNS
[48] = tested on: TK-10 renal
[49] = tested on: ACHN renal
[50] = tested on: LOX IMVI melanoma
[51] = tested on: HOP-62 NSCLC
[52] = tested on: SF-539 CNS
[53] = tested on: MOLT-4 leukemia
[54] = tested on: MCF7 breast
[55] = tested on: OVCAR-8 ovarian
[56] = tested on: A498 renal
[57] = tested on: M14 melanoma
[58] = tested on: SK-MEL-2 melanoma

SMILES: CSC(=S)N/N=C(\C)c1ccccn1
- GI50 [1]: 0.349 µM
- TGI [1]: 14.5 µM
- GI50 [2]: 0.44 µM
- TGI [2]: 14.8 µM
- GI50 [3]: 0.0452 µM
- TGI [3]: > 82.2 µM
- GI50 [4]: 0.113 µM
- TGI [4]: 8.98 µM
- GI50 [5]: 0.465 µM
- TGI [5]: 12.2 µM
- GI50 [6]: 0.289 µM
- TGI [6]: 1.23 µM
- GI50 [7]: 1.47 µM
- TGI [7]: 32.3 µM
- GI50 [8]: 0.0232 µM
- TGI [8]: 16.1 µM
- GI50 [9]: 0.0262 µM
- TGI [9]: 15.7 µM
- GI50 [10]: 0.171 µM
- TGI [10]: 17.4 µM
- GI50 [11]: 0.346 µM
- TGI [11]: 14.3 µM
- GI50 [12]: < 0.01 µM
- GI50 [13]: 0.589 µM
- TGI [13]: 15.2 µM
- GI50 [14]: 0.454 µM
- TGI [14]: 37.5 µM
- GI50 [15]: < 0.0394 µM
- TGI [15]: 18.1 µM
- GI50 [16]: 0.154 µM
- TGI [16]: 11.8 µM
- GI50 [17]: 0.177 µM
- TGI [17]: 9.1 µM
- GI50 [18]: 0.28 µM
- TGI [18]: 1.04 µM
- GI50 [19]: 0.181 µM
- TGI [19]: 0.955 µM
- GI50 [20]: 2.82 µM
- TGI [20]: 36.3 µM
- GI50 [21]: 1.39 µM
- TGI [21]: 26.1 µM
- GI50 [22]: 0.77 µM
- TGI [22]: > 72.3 µM
- GI50 [23]: 0.261 µM
- TGI [23]: 3.1 µM
- GI50 [24]: < 0.01 µM
- TGI [24]: 11.9 µM
- GI50 [25]: < 0.01 µM
- TGI [25]: 23.3 µM
- GI50 [26]: 0.169 µM
- TGI [26]: 17.3 µM
- GI50 [27]: 0.315 µM
- TGI [27]: 12.5 µM
- GI50 [28]: 0.0339 µM
- TGI [28]: 0.368 µM
- GI50 [29]: 0.429 µM
- TGI [29]: 17.5 µM
- GI50 [30]: < 0.01 µM
- TGI [30]: 1.68 µM
- GI50 [31]: 0.255 µM
- TGI [31]: 8.38 µM
- GI50 [32]: < 0.01 µM
- TGI [32]: 5.28 µM
- GI50 [33]: 0.117 µM
- TGI [33]: 17.5 µM
- GI50 [34]: < 0.0453 µM
- TGI [34]: 0.18 µM
- GI50 [35]: 0.267 µM
- TGI [35]: 7.25 µM
- GI50 [36]: 0.407 µM
- TGI [36]: 16.6 µM
- GI50 [37]: 0.335 µM
- TGI [37]: 3.45 µM
- GI50 [38]: 0.16 µM
- TGI [38]: 24.5 µM
- GI50 [39]: 0.119 µM
- TGI [39]: 26.5 µM
- GI50 [40]: 0.311 µM
- TGI [40]: 18 µM
- GI50 [41]: 0.159 µM
- TGI [41]: 1.55 µM
- GI50 [42]: < 0.0169 µM
- TGI [42]: 10.6 µM
- GI50 [43]: 0.143 µM
- TGI [43]: 22.2 µM
- GI50 [44]: < 0.01 µM
- TGI [44]: 15.2 µM
- GI50 [45]: < 0.033 µM
- TGI [45]: 6.46 µM
- GI50 [46]: 0.509 µM
- TGI [46]: 16.2 µM
- GI50 [47]: 0.199 µM
- TGI [47]: 13.6 µM
- GI50 [48]: 0.527 µM
- TGI [48]: 24.2 µM
- GI50 [49]: 0.232 µM
- TGI [49]: 11.8 µM
- GI50 [50]: 0.206 µM
- TGI [50]: 12.6 µM
- GI50 [51]: 0.366 µM
- TGI [51]: 5.19 µM
- GI50 [52]: 0.366 µM
- TGI [52]: 3.54 µM
- GI50 [53]: < 0.0145 µM
- TGI [53]: 0.975 µM
- GI50 [54]: < 0.0207 µM
- TGI [54]: 11.2 µM
- GI50 [55]: 0.203 µM
- TGI [55]: 13.5 µM
- GI50 [56]: 0.458 µM
- TGI [56]: 6.33 µM
- GI50 [57]: 0.0997 µM
- TGI [57]: 2.33 µM
- GI50 [58]: 0.329 µM
- TGI [58]: 3.75 µM

SMILES: Cc1ccc(/C=C(\C#N)n2nnc3cc(F)c(F)cc32)cc1
- GI50 [1]: 3.63 µM
- TGI [1]: 20.9 µM
- GI50 [2]: 1.95 µM
- TGI [2]: 6.81 µM
- GI50 [3]: 5.16 µM
- TGI [3]: 24.3 µM
- GI50 [4]: 3.33 µM
- TGI [4]: 12.8 µM
- GI50 [5]: 3.32 µM
- TGI [5]: 15.6 µM
- GI50 [6]: 3.52 µM
- TGI [6]: 11.3 µM
- GI50 [7]: 2.45 µM
- TGI [7]: 84.5 µM
- GI50 [8]: 2.85 µM
- TGI [8]: 8.71 µM
- GI50 [9]: 2.53 µM
- TGI [9]: > 100 µM
- GI50 [10]: 3.43 µM
- TGI [10]: 32.1 µM
- GI50 [11]: 2.65 µM
- TGI [11]: 15.4 µM
- GI50 [12]: 1.47 µM
- TGI [12]: 6.08 µM
- GI50 [13]: 4.49 µM
- TGI [13]: 33.7 µM
- GI50 [14]: 2.72 µM
- TGI [14]: 7.41 µM
- GI50 [15]: 0.421 µM
- TGI [15]: 1.53 µM
- GI50 [16]: 2.8 µM
- TGI [16]: 14.2 µM
- GI50 [17]: 15.9 µM
- TGI [17]: 56.7 µM
- GI50 [18]: 3.65 µM
- TGI [18]: 14.2 µM
- GI50 [19]: 3.71 µM
- TGI [19]: 17.5 µM
- GI50 [20]: 4.17 µM
- TGI [20]: 44.9 µM
- GI50 [21]: 2.37 µM
- TGI [21]: 8.32 µM
- GI50 [22]: 4.58 µM
- TGI [22]: 20.9 µM
- GI50 [23]: 3.28 µM
- TGI [23]: 13.5 µM
- GI50 [24]: 1.82 µM
- TGI [24]: 3.76 µM
- GI50 [25]: 0.445 µM
- TGI [25]: > 100 µM
- GI50 [26]: 0.891 µM
- TGI [26]: 11.2 µM
- GI50 [27]: 2.5 µM
- TGI [27]: 11.9 µM
- GI50 [28]: 0.291 µM
- TGI [28]: 1.12 µM
- GI50 [29]: 6.79 µM
- TGI [29]: > 100 µM
- GI50 [30]: 1.81 µM
- TGI [30]: > 100 µM
- GI50 [31]: 4.02 µM
- TGI [31]: 34.4 µM
- GI50 [32]: 1.69 µM
- TGI [32]: 7.79 µM
- GI50 [33]: 3.86 µM
- TGI [33]: 41.2 µM
- GI50 [34]: 3.16 µM
- TGI [34]: > 100 µM
- GI50 [35]: 1.77 µM
- TGI [35]: 19.1 µM
- GI50 [36]: 0.36 µM
- TGI [36]: 17.2 µM
- GI50 [37]: 6.45 µM
- TGI [37]: 63.2 µM
- GI50 [38]: 0.651 µM
- TGI [38]: 15.3 µM
- GI50 [39]: 5.21 µM
- TGI [39]: 28 µM
- GI50 [40]: 2.28 µM
- TGI [40]: 7.3 µM
- GI50 [41]: 1.63 µM
- TGI [41]: 3.54 µM
- GI50 [42]: 2.58 µM
- TGI [42]: 15.4 µM
- GI50 [43]: 3.39 µM
- TGI [43]: > 100 µM
- GI50 [44]: 1.19 µM
- TGI [44]: 5.39 µM
- GI50 [45]: 0.391 µM
- TGI [45]: 13.9 µM
- GI50 [46]: 2.96 µM
- TGI [46]: 11.6 µM
- GI50 [47]: 1.48 µM
- TGI [47]: 2.94 µM
- GI50 [48]: 2.52 µM
- TGI [48]: 11.3 µM
- GI50 [49]: 4.2 µM
- TGI [49]: 34.7 µM
- GI50 [50]: 2.88 µM
- TGI [50]: 11.4 µM
- GI50 [51]: 1.52 µM
- TGI [51]: 3.64 µM
- GI50 [52]: 2.59 µM
- TGI [52]: 10.3 µM
- GI50 [53]: 2.7 µM
- TGI [53]: 36.5 µM
- GI50 [54]: 2.45 µM
- TGI [54]: > 100 µM
- GI50 [55]: 2.26 µM
- TGI [55]: 6.93 µM
- GI50 [56]: 2.51 µM
- TGI [56]: 7.84 µM
- GI50 [57]: 2.07 µM
- TGI [57]: 14.9 µM
- GI50 [58]: 2.26 µM
- TGI [58]: 7.97 µM
